Reference: US5656629A, “6-substituted pyrazolo (3,4-d)pyrimidin-4-ones and compositions and methods of use thereof” (Sanofi Winthrop, Inc., priority 1995, dated 1997)

What was measured:
[1] = molecular target: T1, cGMP-PDE V (Homo sapiens, UniProt O76074); experiment: cGMP-PDE V inhibition (isozyme isolated from cardiovascular tissue); assay type: biochemical, various animal species and man
T1 construct: isolated from cardiovascular tissues (heart and aorta); from tissue; host or cells: cardiovascular tissues (heart and aorta)
Text: The cGMP-PDE and other PDE isozymes were isolated from cardiovascular tissues (heart and aorta) of various animal species and man by anion-exchange and affinity chromatography as described by Silver et al., Sec. Messeng. Phos. […] Cyclic Nucleotide Res. 10:69-92.

[2] = tested on: Spontaneously hypertensive rats (SHR); experiment: antihypertensive activity in conscious spontaneously hypertensive rats (mean arterial pressure); assay type: in vivo; conditions: Rattus norvegicus, SHR iv; for ED25: 5 min, 5 min after dose, cumulative dosing, read-out: ED25, change in mean arterial pressure
Experimental: After a 2 day recovery from surgery, three baseline blood pressure measurements were made at 5 min intervals in conscious SHR. Compounds to be tested or vehicle were then administered intravenously in a dose-dependent manner (0.3-10 mg base/kg) while arterial pressure was recorded continuously on a polygraph. The mean arterial pressure response was measured 5 minutes after the administration of each dose of the test compound and the next dose given in a cumulative dose fashion. The response to each dose of the test compound was calculated as the difference from the mean of the three baseline measurements.

[3] = tested on: Spontaneously hypertensive rats (SHR); experiment: as above; assay type: in vivo; conditions: Rattus norvegicus
[4] = tested on: Spontaneously hypertensive rats; experiment: reversal of nitroglycerin-induced tolerance in spontaneously hypertensive rats; assay type: in vivo, Spontaneously hypertensive rats (17-25 weeks of age); conditions: for Percent (%) Reversal of Nitroglycerin-induced Tolerance: iv pretreatment 5-10 min before nitroglycerin challenge
Experimental: Spontaneously hypertensive rats (17-25 weeks of age) were made nitroglycerin tolerant by repeated administration of high doses of nitroglycerin (100 mg/kg, s.c., 3 times/day for 3 consecutive days). To confirm tolerance challenge doses of nitroglycerin were administered intravenously at doses ranging from 1-300 μg/kg and the maximum change in mean arterial pressure (MAP) for each dose was recorded. Groups of tolerant rats were pretreated with the compounds of the invention (tolerant pretreated group) or with vehicle (0.05N NaOH) (tolerant vehicle pretreated group) intravenously 5-10 minutes prior to administration of challenge doses of nitroglycerin. The administration of challenge doses of nitroglycerin to non-tolerant rats (the non-tolerant group) caused a dose-dependent decrease in MAP of between 10 to 40 mm Hg. […] The area under the dose-MAP curve was calculated for the non-tolerant group and for the tolerant vehicle pretreated group and the tolerant pretreated group. The percent reversal of nitrate-inducedtolerance was calculated as follows:
Percent Reversal=(AUCtol-pretreated -AUCtol-veh)/(AUCnontol
wherein: AUCnontol =the area under the dose-MAP curve for the non-tolerant group.
AUCtol-veh =the area under the dose-MAP curve for the tolerant vehicle pretreated group.
AUCtol-pretreated =the area under the dose-MAP curve for the tolerant pretreated group.
The following table summarizes the results obtained from the testing of representative compounds of the invention.

SMILES | IC50 [1] [nM] | ED25 [2] [mg/kg] | change in vivo at 10 mg/kg [2] [%] | Percent (%) Reversal of Nitroglycerin-induced Tolerance ([4]; Dose 1.0 mg/kg) [%] | other results
CCc1nn(C2CCCC2)c2nc(Cc3ccccc3)[nH]c(=O)c12 [1(b), 1-cyclopentyl-3-ethyl-6-(phenylmethyl)-pyrazolo[3,4-d]pyrimdin-4-one] | 10 | – | – | – | change in vivo at 1 mg/kg ([2]; 1 mg/kg): -15%; change in vivo at 30 mg/kg ([3]; SHR iv, 30 mg/kg): -29%
CCc1[nH]n(C2CCCC2)c2nc(Cc3ccc(OC)cc3)nc(=O)c1-2 [Example 6, 1-cyclopentyl-3-ethyl-6-(4-methoxyphenylmethyl)pyrazolo[3,4-d]pyrimidin-4-one] | 23 | 8.4 | -30 | 69 | Percent (%) Reversal of Nitroglycerin-induced Tolerance ([4]; Dose 3.0 mg/kg): 140%
CCc1[nH]n(C2CCCC2)c2nc(Cc3ccc(O)cc3)nc(=O)c1-2 [Example 7, 1-cyclopentyl-3-ethyl-6-(4-hydroxyphenylmethyl)pyrazolo[3,4-d]pyrimidin-4-one] | 19 | 4.6 | – | 45 | Percent (%) Reversal of Nitroglycerin-induced Tolerance ([4]; Dose 0.3 mg/kg): 46%
CCc1[nH]n(C2CCCC2)c2nc(Cc3ccc(N)cc3)nc(=O)c1-2 [Example 26, 1-cyclopentyl-3-ethyl-6-(4-aminophenylmethyl)pyrazolo[3,4-d]pyrimidin-4-one] | 8.7 | 4.2 | -46 | – | change in vivo at 10 mg/kg ([3]; SHR, 10 mg/kg, po): -56%
O=[N+]([O-])OCC(CO[N+](=O)[O-])O[N+](=O)[O-] [nitroglycerin, reference compound] | – | – | – | – | hypotensive response to nitroglycerin challenge ([4]; tolerant vehicle pretreated group, 1-300 μg/kg iv): significant reduction of the hypotensive response
